Laboratory results reported in ChEMBL document CHEMBL1201862, “PubChem BioAssay data set” (2004).
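These data come from cells grown in 96-well plates and exposed to compound for 48 hours at five concentrations. Here, GI50 denotes the concentration required for 50% inhibition of growth.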 Activity calls are given as the source filed them. Cut-off read from the data, not from the text of the source: active = GI50 up to about 1.1 µM and inactive = higher.

Tests used:
Experiment in all cases: growth of human tumour cells (NCI), 48 h
786-0 = tested on: 786-0
CAKI-1 = tested on: CAKI-1
EKVX = tested on: EKVX
HCC 2998 = tested on: HCC 2998
HOP-62 = tested on: HOP-62
K562 = tested on: K562
LOX IMVI = tested on: LOX IMVI
M14 = tested on: M14
Malme-3M = tested on: Malme-3M
NCI-H460 = tested on: NCI-H460
OVCAR-3 = tested on: OVCAR-3
RXF 393 = tested on: RXF 393
SK-MEL-2 = tested on: SK-MEL-2
SN12C = tested on: SN12C
UO-31 = tested on: UO-31
IGROV-1 = tested on: IGROV-1
OVCAR-4 = tested on: OVCAR-4

Measured: GI50

O=C(NO)C12C3C4C1C1C2C3C41C(=O)NO (stereo unspecified)
inactive: 786-0 > 100 µM | CAKI-1 > 100 µM | EKVX > 100 µM | HCC 2998 > 100 µM | HOP-62 > 100 µM | K562 > 100 µM | LOX IMVI > 100 µM | M14 > 100 µM | Malme-3M > 100 µM | NCI-H460 > 100 µM | OVCAR-3 > 100 µM | RXF 393 > 100 µM | SK-MEL-2 > 100 µM | SN12C > 100 µM | UO-31 > 100 µM

Cc1cc(Br)cc(C)c1NC(=O)C(=O)C(C(=O)c1ccncc1)C1OC(=O)c2ccccc21 (stereo unspecified)
inactive: 786-0 > 100 µM | CAKI-1 > 100 µM | EKVX > 100 µM | HCC 2998 > 100 µM | HOP-62 > 100 µM | IGROV-1 > 100 µM | K562 > 100 µM | LOX IMVI > 100 µM | M14 > 100 µM | Malme-3M > 100 µM | NCI-H460 > 100 µM | OVCAR-3 > 100 µM | OVCAR-4 > 100 µM | RXF 393 > 100 µM | SN12C > 100 µM | UO-31 > 100 µM

CCC(=O)NCC1(c2c[nH]c3ccccc23)SCCS1
inactive: 786-0 > 100 µM | CAKI-1 > 100 µM | EKVX > 100 µM | HCC 2998 > 100 µM | HOP-62 > 100 µM | IGROV-1 > 100 µM | K562 > 100 µM | LOX IMVI > 100 µM | M14 > 100 µM | Malme-3M > 100 µM | NCI-H460 > 100 µM | OVCAR-3 > 100 µM | OVCAR-4 > 100 µM | SK-MEL-2 > 100 µM | SN12C > 100 µM

CCCCCCCCCC(=O)NC(Cc1ccc(O)cc1)C(=O)NCCCNCCCCNCCCNC(=O)[C@@H](N)CCCN=C(N)N (stereo partly specified)
inactive: 786-0 61.7 µM | EKVX 30.1 µM | HCC 2998 27.7 µM | HOP-62 22.9 µM | IGROV-1 17.9 µM | K562 29.9 µM | LOX IMVI 84.1 µM | M14 > 100 µM | Malme-3M 20.4 µM | NCI-H460 15.5 µM | OVCAR-3 > 100 µM | SN12C 60.7 µM | UO-31 31.9 µM

COC(=O)/C(=N\Nc1nc(S)nn1N)C(C#N)c1ccc(Cl)cc1 (stereo unspecified)
inactive: 786-0 > 100 µM | CAKI-1 > 100 µM | EKVX > 100 µM | HCC 2998 > 100 µM | HOP-62 > 100 µM | IGROV-1 > 100 µM | LOX IMVI > 100 µM | M14 > 100 µM | Malme-3M > 100 µM | NCI-H460 > 100 µM | OVCAR-3 > 100 µM | OVCAR-4 > 100 µM | RXF 393 > 100 µM | SK-MEL-2 > 100 µM | SN12C > 100 µM | UO-31 > 100 µM

NC(CSSCC(N)Cc1ccccc1)Cc1ccccc1 (stereo unspecified)
inactive: 786-0 32.9 µM | EKVX 47.5 µM | HCC 2998 > 100 µM | HOP-62 > 100 µM | IGROV-1 > 100 µM | K562 33.4 µM | LOX IMVI 29.7 µM | M14 26.4 µM | Malme-3M 57.3 µM | NCI-H460 40.8 µM | OVCAR-3 33 µM | OVCAR-4 70.8 µM | SK-MEL-2 36.8 µM | SN12C 37.9 µM | UO-31 > 100 µM

COCN1COCN(C)C1=O
inactive: 786-0 > 100 µM | CAKI-1 > 100 µM | EKVX > 100 µM | HCC 2998 > 100 µM | HOP-62 > 100 µM | IGROV-1 > 100 µM | K562 > 100 µM | LOX IMVI > 100 µM | M14 > 100 µM | Malme-3M > 100 µM | NCI-H460 > 100 µM | OVCAR-3 > 100 µM | OVCAR-4 > 100 µM | SK-MEL-2 > 100 µM | SN12C > 100 µM | UO-31 > 100 µM

CSc1c([S+](C)[O-])[nH]c2cc(Br)cc(Br)c12 (stereo unspecified)
inactive: 786-0 16 µM | CAKI-1 25.1 µM | EKVX 14.3 µM | HCC 2998 18.3 µM | IGROV-1 37.1 µM | K562 24.2 µM | LOX IMVI 16.2 µM | M14 25.6 µM | Malme-3M 24.9 µM | NCI-H460 16.7 µM | OVCAR-3 20.6 µM | RXF 393 14 µM | SN12C 16.7 µM | UO-31 23.4 µM

CCOC(=O)Nc1ccc(S(=O)(=O)OC)cc1.CCOC(=O)Nc1ccc(S(=O)(=O)OC)cc1.Nc1ncnc2c1ncn2C1OC(CO)C(O)C1O (stereo unspecified)
inactive: 786-0 21.5 µM | CAKI-1 > 100 µM | EKVX > 100 µM | HCC 2998 > 100 µM | HOP-62 > 100 µM | IGROV-1 > 100 µM | K562 23 µM | LOX IMVI 17.8 µM | M14 > 100 µM | Malme-3M > 100 µM | NCI-H460 > 100 µM | OVCAR-3 > 100 µM | OVCAR-4 35.3 µM | SK-MEL-2 > 100 µM | SN12C > 100 µM | UO-31 > 100 µM
